Patent publication US20090299044A1 (priority 2006, published 2009)
Bridge positions count the residues as written; N and C are the ends. Square brackets hold non-standard residues; d marks the D form. Peptide text beside a SMILES is read from it. 1Nal = N[C@@H](Cc1cccc2ccccc12)C(=O)O

Experiments:
[1] = target: T1, human Kv1.3 (CHO) (Homo sapiens, UniProt P22001); experiment: cell-based
T1 construct: expressed in transfected cells; host or cells: CHO

[2] = target: T2, human Kv1.1 (HEK293) (Homo sapiens, UniProt Q09470); experiment: cell-based
T2 construct: expressed in transfected cells; host or cells: HEK293
T2 sequence (Q09470 whole entry): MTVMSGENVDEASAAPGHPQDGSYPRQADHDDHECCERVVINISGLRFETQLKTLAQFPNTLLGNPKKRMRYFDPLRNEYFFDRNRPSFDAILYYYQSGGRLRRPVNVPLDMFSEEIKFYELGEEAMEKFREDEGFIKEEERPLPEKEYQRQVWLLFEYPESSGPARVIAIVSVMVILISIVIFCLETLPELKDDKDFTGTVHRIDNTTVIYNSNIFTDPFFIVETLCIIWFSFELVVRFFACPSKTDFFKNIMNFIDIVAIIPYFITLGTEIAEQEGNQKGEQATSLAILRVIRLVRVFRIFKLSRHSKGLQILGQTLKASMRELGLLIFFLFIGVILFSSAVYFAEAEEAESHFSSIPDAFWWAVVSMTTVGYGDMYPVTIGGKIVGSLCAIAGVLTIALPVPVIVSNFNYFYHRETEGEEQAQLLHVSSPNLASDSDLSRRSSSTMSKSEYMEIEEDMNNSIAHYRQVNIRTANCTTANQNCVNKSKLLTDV

T1 sequence (P22001 whole entry): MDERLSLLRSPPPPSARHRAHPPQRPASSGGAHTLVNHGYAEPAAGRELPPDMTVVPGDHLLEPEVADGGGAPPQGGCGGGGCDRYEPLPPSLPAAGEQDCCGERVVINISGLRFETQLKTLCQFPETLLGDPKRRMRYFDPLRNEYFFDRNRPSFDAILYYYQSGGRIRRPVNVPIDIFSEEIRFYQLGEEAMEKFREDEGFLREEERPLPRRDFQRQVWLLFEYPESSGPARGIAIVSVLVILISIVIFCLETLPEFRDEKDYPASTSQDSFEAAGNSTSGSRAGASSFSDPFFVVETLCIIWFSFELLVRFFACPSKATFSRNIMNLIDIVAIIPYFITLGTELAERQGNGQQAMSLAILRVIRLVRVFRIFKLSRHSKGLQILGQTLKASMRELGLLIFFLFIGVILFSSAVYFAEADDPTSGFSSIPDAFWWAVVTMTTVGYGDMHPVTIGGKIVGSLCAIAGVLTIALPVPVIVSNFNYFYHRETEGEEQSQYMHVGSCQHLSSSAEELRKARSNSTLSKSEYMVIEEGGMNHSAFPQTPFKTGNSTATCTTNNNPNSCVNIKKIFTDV

| Compound | IC50 [1] | IC50 [2] |
| --- | --- | --- |
| CC[C@H](C)[C@@H]1NC(=O)[C@H](CCCCN)NC(=O)[C@@H](NC(=O)[C@H](CCCCN)NC(=O)[C@@H](NC(=O)[C@H](CC(N)=O)NC(=O)[C@@H](NC(=O)[C@@H](NC(=O)[C@@H](NC(=O)CN)C(C)C)[C@@H](C)CC)[C@@H](C)CC)C(C)C)CSSC[C@@H]2NC(=O)[C@H](CCCCN)NC(=O)CNC(=O)[C@H](Cc3ccccc3)NC(=O)[C@H](CCCNC(=N)N)NC(=O)[C@H](CCCNC(=N)N)NC(=O)CNC(=O)[C@H](C)NC(=O)[C@H](CCCCN)NC(=O)[C@H](CCCCN)NC(=O)[C@@H]3CSSC[C@@H](C(=O)N[C@H](C(=O)N4CCC[C@H]4C(=O)N[C@@H](CCCCN)C(=O)O)[C@@H](C)O)NC(=O)[C@H](Cc4c[nH]cn4)NC(=O)[C@H](CSSC[C@H](NC(=O)[C@H](CCC(N)=O)NC(=O)[C@H](CCCNC(=N)N)NC(=O)[C@H](CO)NC1=O)C(=O)N[C@@H](CC(C)C)C(=O)N[C@@H](CCC(=O)O)C(=O)N1CCC[C@H]1C(=O)N3)NC(=O)[C@H](CCCCN)NC(=O)CNC(=O)[C@H](CC(N)=O)NC(=O)[C@H](CCSC)NC2=O [M23R] (H-GVIINVKCKISRQCLEPCKKAGRRFGKCMNGKCHCTPK-OH; disulfide 8-28, 14-33, 18-35) | 0.0123 nM | 0.00201 nM |
| CC[C@H](C)[C@@H]1NC(=O)[C@H](CCCCN)NC(=O)[C@@H](NC(=O)[C@H](CCCCN)NC(=O)[C@@H](NC(=O)[C@H](CC(N)=O)NC(=O)[C@@H](NC(=O)[C@@H](NC(=O)[C@@H](NC(=O)CN)C(C)C)[C@@H](C)CC)[C@@H](C)CC)C(C)C)CSSC[C@@H]2NC(=O)[C@H](CCCCN)NC(=O)CNC(=O)[C@H](Cc3ccccc3)NC(=O)[C@H](CCCNC(=N)N)NC(=O)[C@H](CCSC)NC(=O)CNC(=O)[C@H](C)NC(=O)[C@H](CCCCN)NC(=O)[C@H](CCCCN)NC(=O)[C@@H]3CSSC[C@@H](C(=O)N[C@H](C(=O)N4CCC[C@H]4C(=O)N[C@@H](CCCCN)C(=O)O)[C@@H](C)O)NC(=O)[C@H](Cc4c[nH]cn4)NC(=O)[C@H](CSSC[C@H](NC(=O)[C@H](CCC(N)=O)NC(=O)[C@H](CCCNC(=N)N)NC(=O)[C@H](CO)NC1=O)C(=O)N[C@@H](CC(C)C)C(=O)N[C@@H](CCC(=O)O)C(=O)N1CCC[C@H]1C(=O)N3)NC(=O)[C@H](CCCCN)NC(=O)CNC(=O)[C@H](CC(N)=O)NC(=O)[C@H](CCC(=O)O)NC2=O [M29E] (H-GVIINVKCKISRQCLEPCKKAGMRFGKCENGKCHCTPK-OH; disulfide 8-28, 14-33, 18-35) | > 3.33 nM | > 3.33 nM |
| CC[C@H](C)[C@@H]1NC(=O)[C@H](CCCCN)NC(=O)[C@@H](NC(=O)[C@H](CCCCN)NC(=O)[C@@H](NC(=O)[C@H](C)NC(=O)[C@@H](NC(=O)[C@@H](NC(=O)[C@@H](NC(=O)CN)C(C)C)[C@@H](C)CC)[C@@H](C)CC)C(C)C)CSSC[C@@H]2NC(=O)[C@H](CCCCN)NC(=O)CNC(=O)[C@H](Cc3ccccc3)NC(=O)[C@H](CCCNC(=N)N)NC(=O)[C@H](CCSC)NC(=O)CNC(=O)[C@H](C)NC(=O)[C@H](CCCCN)NC(=O)[C@H](CCCCN)NC(=O)[C@@H]3CSSC[C@@H](C(=O)N[C@H](C(=O)N4CCC[C@H]4C(=O)N[C@@H](CCCCN)C(=O)O)[C@@H](C)O)NC(=O)[C@H](Cc4c[nH]cn4)NC(=O)[C@H](CSSC[C@H](NC(=O)[C@H](CCC(N)=O)NC(=O)[C@H](CCCNC(=N)N)NC(=O)[C@H](CO)NC1=O)C(=O)N[C@@H](CC(C)C)C(=O)N[C@@H](CCC(=O)O)C(=O)N1CCC[C@H]1C(=O)N3)NC(=O)[C@H](CCCCN)NC(=O)CNC(=O)[C@H](CC(N)=O)NC(=O)[C@H](CCSC)NC2=O [N5A] (H-GVIIAVKCKISRQCLEPCKKAGMRFGKCMNGKCHCTPK-OH; disulfide 8-28, 14-33, 18-35) | 0.16 nM | 0.014 nM |
| CC[C@H](C)[C@@H]1NC(=O)[C@H](CCCCN)NC(=O)[C@@H](NC(=O)[C@H](CCCCN)NC(=O)[C@@H](NC(=O)[C@H](CCC(=O)O)NC(=O)[C@@H](NC(=O)[C@@H](NC(=O)[C@@H](NC(=O)CN)C(C)C)[C@@H](C)CC)[C@@H](C)CC)C(C)C)CSSC[C@@H]2NC(=O)[C@H](CCCCN)NC(=O)CNC(=O)[C@H](Cc3ccccc3)NC(=O)[C@H](CCCNC(=N)N)NC(=O)[C@H](CCSC)NC(=O)CNC(=O)[C@H](C)NC(=O)[C@H](CCCCN)NC(=O)[C@H](CCCCN)NC(=O)[C@@H]3CSSC[C@@H](C(=O)N[C@H](C(=O)N4CCC[C@H]4C(=O)N[C@@H](CCCCN)C(=O)O)[C@@H](C)O)NC(=O)[C@H](Cc4c[nH]cn4)NC(=O)[C@H](CSSC[C@H](NC(=O)[C@H](CCC(N)=O)NC(=O)[C@H](CCCNC(=N)N)NC(=O)[C@H](CO)NC1=O)C(=O)N[C@@H](CC(C)C)C(=O)N[C@@H](CCC(=O)O)C(=O)N1CCC[C@H]1C(=O)N3)NC(=O)[C@H](CCCCN)NC(=O)CNC(=O)[C@H](CC(N)=O)NC(=O)[C@H](CCSC)NC2=O [N5E] (H-GVIIEVKCKISRQCLEPCKKAGMRFGKCMNGKCHCTPK-OH; disulfide 8-28, 14-33, 18-35) | 0.0234 nM | 0.00444 nM |
| CC[C@H](C)[C@@H]1NC(=O)[C@H](CCCCN)NC(=O)[C@@H](NC(=O)[C@H](CCCCN)NC(=O)[C@@H](NC(=O)[C@H](Cc2cccc3ccccc23)NC(=O)[C@@H](NC(=O)[C@@H](NC(=O)[C@@H](NC(=O)CN)C(C)C)[C@@H](C)CC)[C@@H](C)CC)C(C)C)CSSC[C@@H]2NC(=O)[C@H](CCCCN)NC(=O)CNC(=O)[C@H](Cc3ccccc3)NC(=O)[C@H](CCCNC(=N)N)NC(=O)[C@H](CCSC)NC(=O)CNC(=O)[C@H](C)NC(=O)[C@H](CCCCN)NC(=O)[C@H](CCCCN)NC(=O)[C@@H]3CSSC[C@@H](C(=O)N[C@H](C(=O)N4CCC[C@H]4C(=O)N[C@@H](CCCCN)C(=O)O)[C@@H](C)O)NC(=O)[C@H](Cc4c[nH]cn4)NC(=O)[C@H](CSSC[C@H](NC(=O)[C@H](CCC(N)=O)NC(=O)[C@H](CCCNC(=N)N)NC(=O)[C@H](CO)NC1=O)C(=O)N[C@@H](CC(C)C)C(=O)N[C@@H](CCC(=O)O)C(=O)N1CCC[C@H]1C(=O)N3)NC(=O)[C@H](CCCCN)NC(=O)CNC(=O)[C@H](CC(N)=O)NC(=O)[C@H](CCSC)NC2=O [N5Nal] (H-GVII[1Nal]VKCKISRQCLEPCKKAGMRFGKCMNGKCHCTPK-OH; disulfide 8-28, 14-33, 18-35) | 0.0218 nM | < 0.00152 nM |
| CC[C@H](C)[C@@H]1NC(=O)[C@H](CCCCN)NC(=O)[C@@H](NC(=O)[C@H](CCCCN)NC(=O)[C@@H](NC(=O)[C@H](CCCNC(=N)N)NC(=O)[C@@H](NC(=O)[C@@H](NC(=O)[C@@H](NC(=O)CN)C(C)C)[C@@H](C)CC)[C@@H](C)CC)C(C)C)CSSC[C@@H]2NC(=O)[C@H](CCCCN)NC(=O)CNC(=O)[C@H](Cc3ccccc3)NC(=O)[C@H](CCCNC(=N)N)NC(=O)[C@H](CCSC)NC(=O)CNC(=O)[C@H](C)NC(=O)[C@H](CCCCN)NC(=O)[C@H](CCCCN)NC(=O)[C@@H]3CSSC[C@@H](C(=O)N[C@H](C(=O)N4CCC[C@H]4C(=O)N[C@@H](CCCCN)C(=O)O)[C@@H](C)O)NC(=O)[C@H](Cc4c[nH]cn4)NC(=O)[C@H](CSSC[C@H](NC(=O)[C@H](CCC(N)=O)NC(=O)[C@H](CCCNC(=N)N)NC(=O)[C@H](CO)NC1=O)C(=O)N[C@@H](CC(C)C)C(=O)N[C@@H](CCC(=O)O)C(=O)N1CCC[C@H]1C(=O)N3)NC(=O)[C@H](CCCCN)NC(=O)CNC(=O)[C@H](CC(N)=O)NC(=O)[C@H](CCSC)NC2=O [N5R] (H-GVIIRVKCKISRQCLEPCKKAGMRFGKCMNGKCHCTPK-OH; disulfide 8-28, 14-33, 18-35) | 0.0136 nM | 0.00215 nM |
| CC[C@H](C)[C@@H]1NC(=O)[C@H](CCCCN)NC(=O)[C@@H](NC(=O)[C@H](CCCCN)NC(=O)[C@@H](NC(=O)[C@H](CC(N)=O)NC(=O)[C@@H](NC(=O)[C@@H](NC(=O)[C@@H](NC(=O)CN)C(C)C)[C@@H](C)CC)[C@@H](C)CC)C(C)C)CSSC[C@@H]2NC(=O)[C@H](CCCCN)NC(=O)CNC(=O)[C@H](Cc3ccccc3)NC(=O)[C@H](CCCNC(=N)N)NC(=O)[C@H](CCSC)NC(=O)CNC(=O)[C@H](C)NC(=O)[C@H](CCCCN)NC(=O)[C@H](CCCCN)NC(=O)[C@@H]3CSSC[C@@H](C(=O)N[C@H](C(=O)N4CCC[C@H]4C(=O)N[C@@H](CCCCN)C(=O)O)[C@@H](C)O)NC(=O)[C@H](Cc4c[nH]cn4)NC(=O)[C@H](CSSC[C@H](NC(=O)[C@H](CCC(N)=O)NC(=O)[C@H](CCCNC(=N)N)NC(=O)[C@H](CO)NC1=O)C(=O)N[C@@H](CC(C)C)C(=O)N[C@@H](CCC(=O)O)C(=O)N1CCC[C@H]1C(=O)N3)NC(=O)[C@H](CCCCN)NC(=O)CNC(=O)[C@H](CCCNC(=N)N)NC(=O)[C@H](CCSC)NC2=O [N30R] (H-GVIINVKCKISRQCLEPCKKAGMRFGKCMRGKCHCTPK-OH; disulfide 8-28, 14-33, 18-35) | 0.0189 nM | 0.0457 nM |
| CC[C@H](C)[C@@H]1NC(=O)[C@H](CCCCN)NC(=O)[C@@H](NC(=O)[C@H](CCCCN)NC(=O)[C@@H](NC(=O)[C@H](CC(N)=O)NC(=O)[C@@H](NC(=O)[C@@H](NC(=O)[C@@H](NC(=O)CN)C(C)C)[C@@H](C)CC)[C@@H](C)CC)C(C)C)CSSC[C@@H]2NC(=O)[C@H](CCCCN)NC(=O)CNC(=O)[C@H](Cc3ccccc3)NC(=O)[C@H](CCCNC(=N)N)NC(=O)[C@H](CCSC)NC(=O)CNC(=O)[C@H](C)NC(=O)[C@H](CCCCN)NC(=O)[C@H](CCCCN)NC(=O)[C@@H]3CSSC[C@@H](C(=O)N[C@H](C(=O)N4CCC[C@H]4C(=O)N[C@@H](CCCCN)C(=O)O)[C@@H](C)O)NC(=O)[C@H](Cc4c[nH]cn4)NC(=O)[C@H](CSSC[C@H](NC(=O)[C@H](CCC(N)=O)NC(=O)[C@H](CCCNC(=N)N)NC(=O)[C@H](CO)NC1=O)C(=O)N[C@@H](CC(C)C)C(=O)N[C@@H](CCC(=O)O)C(=O)N[C@@H](C)C(=O)N3)NC(=O)[C@H](CCCCN)NC(=O)CNC(=O)[C@H](CC(N)=O)NC(=O)[C@H](CCSC)NC2=O [P17A] (H-GVIINVKCKISRQCLEACKKAGMRFGKCMNGKCHCTPK-OH; disulfide 8-28, 14-33, 18-35) | 0.0339 nM | 0.00908 nM |
